The source of these data is the NIST ThermoML archive (doi:10.1021/acs.jced.6b00092).

Numbers after ± are expanded uncertainties.

The conditions of series [1]: Liquid; for mass density: 298.15 K, 101.33 kPa, Vibrating tube method; for vapor or sublimation pressure / Normal boiling temperature: Ebulliometric method (Recirculating still).
Series [2] can be described thus: refractive index (Na D-line) (dimensionless). The following applies: 298.15 K; 101.33 kPa; Liquid; Standard Abbe refractometry.

Usually mass density stands for mass per unit of volume. What is called vapor or sublimation pressure is the pressure of vapour in equilibrium with the condensed phase. The term refractive index denotes the speed of light in vacuum divided by its phase velocity in the sample. With `CC(C)CCO` [3-methylbutan-1-ol], the mass density in series [1] is 807.3 ± 10 kg/m3. For the same compound, the results for the “vapor or sublimation pressure” value in series [1] (379.01 K), in series [1] (389.52 K) and in series [1] (397.48 K) were 40 ± 8 kPa, 60 ± 12 kPa and 80 ± 16 kPa, respectively. Moreover, in series [1], the Normal boiling temperature worked out at 130.70 ± 4 °C. The refractive index in series [2] came to 1.4055 ± 0.0004.
`CC(O)CC(C)(C)O` (stereo not drawn) [2-methyl-2,4-pentanediol]: in series [1], the mass density was determined as 915.6 ± 10 kg/m3. Further, the “vapor or sublimation pressure” value is 40 ± 7 kPa in series [1] (442.09 K), 60 ± 8 kPa in series [1] (453.84 K) and 80 ± 9 kPa in series [1] (462.67 K). Further, the Normal boiling temperature in series [1] worked out at 197.30 ± 4 °C. Besides, in series [2], the refractive index was 1.4265 ± 0.0004.
As to `OCCCCO` [1,4-butanediol], the mass density in series [1] is reported as 1012.96 ± 10 kg/m3. Also, the “vapor or sublimation pressure” value came out at 40 ± 7 kPa in series [1] (473.44 K), 60 ± 8 kPa in series [1] (485.11 K) and 80 ± 9 kPa in series [1] (493.78 K). In addition, in series [1], the Normal boiling temperature stood at 227.93 ± 4 °C. Moreover, the refractive index in series [2] came out at 1.4447 ± 0.0004.
